Where “and” joins values, the source holds several entries; their conditions need not be identical. Equal entries are not always repeated. Where two headings read alike, the source gives them in different places.
Key:
[1] = cited from earlier work
[2] = cited from earlier work; for share of the total dose eliminated as this metabolite: oral administration of Ivacaftor
[3] = tested on: CYP3A; settings: in-vitro and clinical studies; cited from earlier work
[4] = cited from earlier work; for median (range) tmax: multiple oral dose of Ivacaftor in combination with Lumacaftor, fed state; for exposure with fat-containing foods relative to fasting state: single dose of Lumacaftor/Ivacaftor
[5] = cited from earlier work; remark: listed apart in the source
[6] = tested on: plasma proteins, primarily albumin; settings: cited from earlier work
[7] = tested on: colorectal adenocarcinoma (Caco-2) cell system; settings: cited from earlier work
[8] = target: CFTR protein (Homo sapiens, UniProt P13569); settings: major human metabolites of Ivacaftor; cited from earlier work
CFTR protein, sequence (P13569 whole entry): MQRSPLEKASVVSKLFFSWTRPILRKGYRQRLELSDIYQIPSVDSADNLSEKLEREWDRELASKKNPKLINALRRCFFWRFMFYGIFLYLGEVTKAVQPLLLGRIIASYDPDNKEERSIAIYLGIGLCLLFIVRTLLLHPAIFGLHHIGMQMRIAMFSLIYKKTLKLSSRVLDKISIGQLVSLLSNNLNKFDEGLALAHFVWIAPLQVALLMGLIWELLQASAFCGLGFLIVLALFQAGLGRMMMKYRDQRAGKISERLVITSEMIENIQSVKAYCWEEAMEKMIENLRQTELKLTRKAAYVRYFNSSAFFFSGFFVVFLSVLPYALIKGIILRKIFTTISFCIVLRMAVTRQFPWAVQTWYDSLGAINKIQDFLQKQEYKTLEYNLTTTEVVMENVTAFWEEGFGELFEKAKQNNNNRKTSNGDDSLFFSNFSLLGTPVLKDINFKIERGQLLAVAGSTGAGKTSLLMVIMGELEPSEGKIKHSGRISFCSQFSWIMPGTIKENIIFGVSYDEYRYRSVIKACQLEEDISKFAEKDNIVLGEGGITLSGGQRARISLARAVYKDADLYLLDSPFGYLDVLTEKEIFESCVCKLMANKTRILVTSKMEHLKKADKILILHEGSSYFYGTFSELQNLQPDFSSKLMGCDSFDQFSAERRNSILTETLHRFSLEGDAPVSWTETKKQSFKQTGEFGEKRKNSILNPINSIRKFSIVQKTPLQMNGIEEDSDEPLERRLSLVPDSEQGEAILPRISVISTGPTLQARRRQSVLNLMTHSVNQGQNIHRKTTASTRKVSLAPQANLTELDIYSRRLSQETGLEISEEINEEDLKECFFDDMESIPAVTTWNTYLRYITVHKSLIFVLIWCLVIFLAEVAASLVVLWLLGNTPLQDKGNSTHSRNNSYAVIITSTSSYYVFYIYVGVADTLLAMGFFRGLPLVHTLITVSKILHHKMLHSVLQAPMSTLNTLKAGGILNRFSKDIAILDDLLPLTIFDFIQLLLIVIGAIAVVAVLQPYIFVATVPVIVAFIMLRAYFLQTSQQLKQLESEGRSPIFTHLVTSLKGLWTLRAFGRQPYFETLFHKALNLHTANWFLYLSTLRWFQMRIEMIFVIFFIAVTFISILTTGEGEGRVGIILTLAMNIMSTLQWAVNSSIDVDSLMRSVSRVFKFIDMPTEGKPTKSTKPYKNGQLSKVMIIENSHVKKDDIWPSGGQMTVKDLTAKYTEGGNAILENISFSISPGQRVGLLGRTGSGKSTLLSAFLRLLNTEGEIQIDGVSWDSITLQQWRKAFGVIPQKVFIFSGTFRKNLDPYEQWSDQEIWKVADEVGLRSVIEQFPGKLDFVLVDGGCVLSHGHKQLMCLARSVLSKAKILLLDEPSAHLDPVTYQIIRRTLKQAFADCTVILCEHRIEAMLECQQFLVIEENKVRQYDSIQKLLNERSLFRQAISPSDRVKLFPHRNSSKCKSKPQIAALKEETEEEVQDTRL

[9] = Gastro-intestinal tract simulated dissolution test (fasted/FaSSIF and fed/FeSSIF); type: physicochemical; settings: for increase of Ivacaftor dissolution / apparent solubility in FeSSIF condition: FeSSIF vs FaSSIF
Method: Gastro-intestinal tract simulated drug dissolution tests were performed by dispersing the blended pharmaceutical combination composition described above in purified water. The dispersion contained 1 mg/mL Lumacaftor and 0.625 mg/mL Ivacaftor (identical mixture to ORKAMBI®). After 30 minutes holding time, simulated gastric fluid (SGF V2) was added to dispersion in order to set-up the pH to 1.6 (fasted state simulation) or FeSSIF buffer to increase the pH to 5.8 (fed state simulation). After 60 minutes holding time, the pH of the fasted state simulated dispersion was set-up to pH=6.5 adding maleic acid solution. FaSSIF solution was also added to the dispersion to ensure the fasted condition in the intestine simulation. In case of fed state simulation FeSSIF solution was added to the dispersion.
The dissolved amount of Lumacaftor and Ivacaftor from the blended pharmaceutical combination composition was measured by RP-HPLC after filtration with 0.1 μm pore size filter at different time points. Dissolution of Ivacaftor and Lumacaftor from the blended and granulated complex formulation was instantaneous, within 5 minutes more than 85% of the Ivacaftor and Lumacaftor dissolved from the pharmaceutical composition of present invention both in fasted and fed state simulated condition. (FIG. 3).

[10] = Redispersibility / DLS particle size of ball milled formulations; type: physicochemical; settings: after ball milling and lyophilization
Method: Ivacaftor was ball milled in the presence of the excipients used for the preparation of solid dispersion. Crystalline Lumacaftor was ball milled in the absence of complexation agent (Luviscol VA64) and pharmaceutically acceptable excipient (SDS) and in the presence of them. Ball milling parameters were the following: • Speed: 500 rpm • Milling time: 1 hour • Number of the balls: 25 pcs with 10 mm diameter • Milling vessel's material: […] • Quantity of the milled samples: 100 mg API equivalent mass in 12 mL Milli-Q water
After the milling, the vessel was washed out with 5 mL Milli-Q water. The products were frozen on salted ice and then it was lyophilized using a freeze-drier equipped with −110° C. ice condenser, with a vacuum pump. The material and in-vitro properties of the resulted formulations were compared to the complex Lumacaftor and Ivacaftor formulations.
Particle size of the formulations was measured by DLS technique in reconstituted dispersion/solution.

[11] = Comparative apparent solubility test (100 nm filtration, UV-VIS or RP-HPLC); type: physicochemical; settings: ultrapurified water, thermodynamic from solid, FIG. 17, read-out: comparative apparent solubility of Ivacaftor formulations
Method: The apparent solubility was measured by UV-VIS spectroscopy or RP-HPLC at room temperature. The samples were dispersed in ultrapurified water in 1-20 mg/mL active ingredient equivalent concentration range. The resulting solutions were filtered by 100 nm disposable syringe filter. The active ingredient content in the filtrate was measured by UV-Vis spectrophotometry or RP-HPLC and the apparent solubility was calculated. The filtrate may contain particles which could not be filtrated out using 100 nm pore size filter.

[12] = single 150 mg oral dose, healthy volunteers, fed state

In the case of `CC(C)(C)c1cc(C(C)(C)C)c(NC(=O)c2c[nH]c3ccccc3c2=O)cc1O` [Ivacaftor, N-(2,4-di-tert-butyl-5-hydroxyphenyl)-1,4-dihydro-4oxoquinoline-3-carboxamide], the solubility in water ([1]; water) is listed as less than 0.05 microgram/mL, the “apparent volume of distribution, mean (±SD)” value ([2]; 150 mg every 12 hours for 7 days, healthy volunteers, fed state) is listed as 353 (122) L and the accumulation ratio ([2]; every 12-hour dosing) is listed as 2.2 to 2.9. The “time to steady-state plasma concentrations” value ([2]; every 12-hour dosing) was 3 to 5 days, the “median (range) tmax” value ([2]; fed state) was “approximately 4.0 (3.0; 6.0) hours” and the “increase of exposure when given with food containing fat (food effect)” value ([2]; humans, fed vs fasted) was 2-to 4 fold and 2-4 fold. For the same compound, the “fraction of dose eliminated in the feces after metabolic conversion” value ([2]; oral administration) was 87.8%, the “urinary excretion as unchanged parent” value ([2]; oral administration) was “negligible” and the “AUC, mean (±SD)” value [2, 12] was 10,600 (5260) ng*hr/mL. The “Cmax, mean (±SD)” value [2, 12] was 768 (233) ng/mL, the “time of peak plasma concentrations (tmax)” value [2, 12] was “approximately 4 hours” and the apparent terminal half-life ([2]; single dose) was “approximately 12 hours”. For the same compound, the main metabolic route [3] was “primarily metabolized by CYP3A”, the “median (range) tmax” value [4] was “approximately 4.0 hours” and the “exposure with fat-containing foods relative to fasting state” value [4] was “approximately 3 times”.

In the case of `Cc1ccc(NC(=O)C2(c3ccc4c(c3)OC(F)(F)O4)CC2)nc1-c1cccc(C(=O)O)c1` [Lumacaftor], the solubility ([1]; water and buffer solutions of pH 1.0 to pH 8.0) is listed as “practically insoluble”, the “apparent volume of distribution, mean (±SD)” value ([5]; 200 mg every 24 hours for 28 days, CF patients, fed state) is listed as 86.0 (69.8) L and the “total radioactivity recovered in the urine” value ([5]; Lumacaftor and its metabolites) is listed as 8.6%. For the same compound, the “median (range) time of the maximum concentration (tmax)” value ([5]; fed state) was “approximately 4.0 (2.0, 9.0) hours”, the “increase of exposure when given with fat containing food” value ([5]; fed vs fasted) was 1.6-to 2.0 fold and the “excreted unchanged in the feces” value ([5]; humans) was 51%. For the same compound, the main metabolic route ([5]; in-vitro and in vivo data) was “mainly metabolized via oxidation and glucuronidation”, the “recovered in urine as unchanged parent” value ([5]; of total radioactivity) was 0.18% and the half-life ([5]; patients with CF) was “approximately 26 hours”. For the same compound, the “bound to plasma proteins” value [6] was “approximately 99%”, the “permeability in Caco-2 cell system” value [7] was “high permeability” and the “median (range) tmax” value [4] was “approximately 4.0 hours”. For the same compound, the “exposure with fat-containing foods relative to fasting state” value [4] was “approximately 2 times”.

In the case of `CC(C)(C)c1cc(C(C)(C)CO)c(O)cc1NC(=O)c1c[nH]c2ccccc2c1=O` [M1], the “share of the total dose eliminated as this metabolite” value [2] is given as 22% and the “potency relative to Ivacaftor” value [8] is given as “approximately one-sixth”.

In the case of `CC(C)(C)c1cc(C(C)(C)C(=O)O)c(O)cc1NC(=O)c1c[nH]c2ccccc2c1=O` [M6], the “share of the total dose eliminated as this metabolite” value [2] is given as 43% and the “potency relative to Ivacaftor” value [8] is given as “less than one-fiftieth”.

With `CC(C)(C)c1cc(C(C)(C)C)c(NC(=O)c2c[nH]c3ccccc3c2=O)cc1O` [ball milled crystalline Ivacaftor] the “increase of Ivacaftor dissolution / apparent solubility in FeSSIF condition” value [9] was 3 fold.

With `Cc1ccc(NC(=O)C2(c3ccc4c(c3)OC(F)(F)O4)CC2)nc1-c1cccc(C(=O)O)c1` [ball milled crystalline Lumacaftor] the “redispersibility in purified water” value [10] was “hardly redispersible”.

With `CC(C)(C)c1cc(C(C)(C)C)c(NC(=O)c2c[nH]c3ccccc3c2=O)cc1O` [crystalline Ivacaftor] the “increase of Ivacaftor dissolution / apparent solubility in FeSSIF condition” value [9] was 5 fold and the solubility [11] was less than 100 µg/mL.

With `Cc1ccc(NC(=O)C2(c3ccc4c(c3)OC(F)(F)O4)CC2)nc1-c1cccc(C(=O)O)c1` [crystalline Lumacaftor] the “apparent solubility of Lumacaftor” value ([9]; both in FaSSIF and FeSSIF media) was “below 10%”.

From patent US10383865B2, “Pharmaceutical combination composition comprising complex formulations of Ivacaftor and Lumacaftor and their salts and derivatives, process for their preparation thereof and pharmaceutical compositions containing them” (Druggability Technologies IP Holdco Limited, priority 2016, dated 2019)
